The nature of series [1]: refractive index (Na D-line) (dimensionless). The settings on record: 298.15 K; 101.33 kPa; Liquid; Standard Abbe refractometry.
The conditions of series [2]: Liquid; for mass density: 101.33 kPa.

± gives the expanded uncertainty stated by the source.

Regarding `O=C1CCCC1` [cyclopentanone], the refractive index in series [1] is on record as 1.4347 ± 0.0007. Also, the mass density in series [2] (298.15 K) was 945.3 ± 0.2 kg/m3. The “vapor or sublimation pressure” value in series [2] (298.15 K) amounted to 1.71 ± 0.32 kPa; in series [2] (308.15 K), 2.8 ± 0.33 kPa; in series [2] (318.15 K) it was 4.4 ± 0.34 kPa.
For `ClCCCCl` [1,3-dichloropropane] the same measures were 1.4459 ± 0.0007, 1181.4 ± 0.3 kg/m3, 2.75 ± 0.16 kPa, 4.48 ± 0.17 kPa and 6.87 ± 0.18 kPa.
The corresponding values for `ClCCCCCl` [1,4-dichlorobutane] are 1.4519 ± 0.0007, 1132.8 ± 0.2 kg/m3, 0.99 ± 0.16 kPa, 1.39 ± 0.16 kPa and 2.13 ± 0.16 kPa.
In the case of `CCCCCl` [1-chlorobutane], the refractive index in series [1] worked out at 1.3991 ± 0.0007. For the same molecule, the mass density in series [2] (298.15 K, Vibrating tube method) is given as 880.9 ± 0.1 kg/m3. Besides, the figures for the “vapor or sublimation pressure” value in series [2] (298.15 K), in series [2] (308.15 K) and in series [2] (318.15 K) were 13.7 ± 0.4 kPa, 21.32 ± 0.44 kPa and 31.86 ± 0.51 kPa, respectively.

(Values after the NIST ThermoML archive (doi:10.1016/j.jct.2007.03.008).)
